Source: patent US11084800B2 (Achillion Pharmaceuticals, Inc., priority 2017, dated 2021)

Target: Human Factor D (Homo sapiens (Human), UniProt P00746)
Test: Human Factor D Assay
Format: biochemical
Details: Table 6; Factor D 80 nM, substrate Z-L-Lys-SBz; read-out: IC50
Procedure, shortened: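 Thioester substrate Z-L-Lys-SBz (100 μM) with Ellman's reagent DTNB (100 μM) reports activity of 80 nM human serum-derived enzyme, kinetically at 405 nm over 30 min. Compound preincubated 5 min, room temperature, pH 7.5 Tris/1 M NaCl; IC50 by nonlinear fit of rates.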

Chain of Human Factor D (P00746 26-253): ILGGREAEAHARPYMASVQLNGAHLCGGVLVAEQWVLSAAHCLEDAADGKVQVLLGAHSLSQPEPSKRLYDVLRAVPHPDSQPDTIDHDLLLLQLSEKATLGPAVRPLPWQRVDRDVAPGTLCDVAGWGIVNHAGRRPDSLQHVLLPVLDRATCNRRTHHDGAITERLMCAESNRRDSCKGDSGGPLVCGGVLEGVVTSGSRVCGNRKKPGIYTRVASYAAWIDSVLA

SMILES	IC50 [nM]
CC(=O)c1nn(CC(=O)N2C[C@H]3C[C@H]3[C@H]2C(=O)O)c2c(C)cc(-c3cnc(C)nc3)cc12 [Compound 111, (1R,2S,5S)-3-(2-(3-acetyl-7-methyl-5-(2-methylpyrimidin-5-yl)-1H-indazol-1-yl)acetyl)-3-azabicyclo[3.1.0]hexane-2-carboxylic acid]	> 10000
CC(=O)c1nn(CC(=O)N2[C@H](C(=O)Nc3nc(Br)ccc3C3CC3)C[C@@]3(CN(C)C)C[C@@H]23)c2ccc(-c3cnc(C)nc3)cc12 [Compound 112, (1R,3S,5R)-2-(2-(3-Acetyl-5-(2-methylpyrimidin-5-yl)-1H-indazol-1-yl)acetyl)-N-(6-bromo-3-cyclopropylpyridin-2-yl)-5-((dimethylamino)methyl)-2-azabicyclo[3.1.0]hexane-3-carboxamide]	< 1000
CC(=O)c1nn(CC(=O)N2[C@H](C(=O)Nc3nc(Br)ccc3C)C[C@@]3(CNCCF)C[C@@H]23)c2c(C)cc(-c3cnc(C)nc3)cc12 [Compound 113, (1R,3S,5R)-2-(2-(3-Acetyl-7-methyl-5-(2-methylpyrimidin-5-yl)-1H-indazol-1-yl)acetyl)-N-(6-bromo-3-methylpyridin-2-yl)-5-((2-fluoroethylamino)methyl)-2-azabicyclo[3.1.0]hexane-3-carboxamide]	< 1000
COCc1cc(-c2cnc(C)nc2)cc2c(C(C)=O)nn(CC(=O)N3[C@H](C(=O)Nc4nc(Br)ccc4C)C[C@@]4(COC)C[C@@H]34)c12 [Compound 114, (1R,3S,5S)-2-(2-(3-Acetyl-7-(methoxymethyl)-5-(2-methylpyrimidin-5-yl)-1H-indazol-1-yl)acetyl)-N-(6-bromo-3-methylpyridin-2-yl)-5-(methoxymethyl)-2-azabicyclo[3.1.0]hexane-3-carboxamide]	< 1000
Cc1ncc(-c2cc(C)c3c(c2)c(C(C)O)nn3CC(=O)N2C[C@H]3C[C@H]3[C@H]2C(=O)Nc2nc(Br)ccc2C)cn1 (stereo partly drawn) [Compound 115, (1R,2S,5S)-N-(6-bromo-3-methylpyridin-2-yl)-3-(2-(3-(1-hydroxyethyl)-7-methyl-5-(2-methylpyrimidin-5-yl)-1H-indazol-1-yl)acetyl)-3-azabicyclo[3.1.0]hexane-2-carboxamide]	1000 to 10000
CC(=O)c1nn(CC(=O)N2[C@H](C(=O)Nc3cc(F)cc(Br)n3)C[C@@]3(C)C[C@@H]23)c2c(C)cc(-c3cnc(C)nc3)cc12 [Compound 116, (1R,3S,5R)-2-(2-(3-Acetyl-7-methyl-5-(2-methylpyrimidin-5-yl)-1H-indazol-1-yl)acetyl)-N-(6-bromo-4-fluoropyridin-2-yl)-5-methyl-2-azabicyclo[3.1.0]hexane-3-carboxamide]	< 1000
CC(=O)c1nn(CC(=O)N2C[C@H](F)C[C@H]2C(=O)Nc2nc(Br)ccc2CC(=O)N(C)C)c2ccc(-c3cnc(C)nc3)cc12 [Compound 117, (2S,4R)-1-(2-(3-Acetyl-5-(2-methylpyrimidin-5-yl)-1H-indazol-1-yl)acetyl)-N-(6-bromo-3-(2-(dimethylamino)-2-oxoethyl)pyridin-2-yl)-4-fluoropyrrolidine-2-carboxamide]	< 1000
CCN(CC)C[C@@]12C[C@@H](C(=O)Nc3nc(Br)ccc3C)N(C(=O)Cn3nc(C(C)=O)c4cc(-c5cnc(C)nc5)cc(C)c43)[C@@H]1C2 [Compound 118, (1R,3S,5R)-2-(2-(3-Acetyl-7-methyl-5-(2-methylpyrimidin-5-yl)-1H-indazol-1-yl)acetyl)-N-(6-bromo-3-methylpyridin-2-yl)-5-((diethylamino)methyl)-2-azabicyclo[3.1.0]hexane-3-carboxamide]	< 1000
CC(=O)c1nn(CC(=O)N2[C@H](C(=O)Nc3nc(Br)ccc3C)C[C@@]3(CN4C[C@H]5CCC[C@H]5C4)C[C@@H]23)c2ccc(-c3cnc(C)nc3)cc12 [Compound 119, (1R,3S,5R)-2-(2-(3-Acetyl-5-(2-methylpyrimidin-5-yl)-1H-indazol-1-yl)acetyl)-N-(6-bromo-3-methylpyridin-2-yl)-5-(((3aR,6aS)-hexahydrocyclopenta[c]pyrrol-2(1H)-yl)methyl)-2-azabicyclo[3.1.0]hexane-3-carboxamide]	< 1000
CNc1ncc(-c2ccc3c(c2)c(C(C)=O)nn3CC(=O)N2[C@H](C(=O)Nc3nc(Br)ccc3C)C[C@@]3(C)C[C@@H]23)cn1 [Compound 120, (1R,3S,5R)-2-(2-(3-Acetyl-5-(2-(methylamino)pyrimidin-5-yl)-1H-indazol-1-yl)acetyl)-N-(6-bromo-3-methylpyridin-2-yl)-5-methyl-2-azabicyclo[3.1.0]hexane-3-carboxamide]	< 1000
C=CCCCCN(C)C[C@@]12C[C@@H](C(=O)Nc3nc(Br)ccc3C=C)N(C(=O)Cn3nc(C(C)=O)c4cc(-c5cnc(C)nc5)ccc43)[C@@H]1C2 [Compound 123, (1R,3S,5R)-2-(2-(3-Acetyl-5-(2-methylpyrimidin-5-yl)-1H-indazol-1-yl)acetyl)-N-(6-bromo-3-vinylpyridin-2-yl)-5-((hex-5-en-1-yl(methyl)amino)methyl)-2-azabicyclo[3.1.0]hexane-3-carboxamide]	< 1000
CC(=O)c1nn(CC(=O)N2[C@H](C(=O)Nc3nc(Br)ccc3C)C[C@@]3(C)C[C@@H]23)c2c(C#N)cc(-c3cnc(C)nc3)cc12 [Compound 124, (1R,3S,5R)-2-(2-(3-Acetyl-7-cyano-5-(2-methylpyrimidin-5-yl)-1H-indazol-1-yl)acetyl)-N-(6-bromo-3-methylpyridin-2-yl)-5-methyl-2-azabicyclo[3.1.0]hexane-3-carboxamide]	< 1000
CC(=O)c1nn(CC(=O)N2[C@H](C(=O)Nc3nc(Br)ccc3C)C[C@@]3(C)C[C@@H]23)c2ccc(-c3cnc(N(C)C)nc3)cc12 [Compound 125, (1R,3S,5R)-2-(2-(3-Acetyl-5-(2-(dimethylamino)pyrimidin-5-yl)-1H-indazol-1-yl)acetyl)-N-(6-bromo-3-methylpyridin-2-yl)-5-methyl-2-azabicyclo[3.1.0]hexane-3-carboxamide]	< 1000
CC(=O)c1nn(CC(=O)N2[C@H](C(=O)O)C[C@@]3(C)C[C@@H]23)c2c(C)cc(-c3cnc(C)nc3)cc12 [Compound 126, (1R,3S,5R)-2-(2-(3-acetyl-7-methyl-5-(2-methylpyrimidin-5-yl)-1H-indazol-1-yl)acetyl)-5-methyl-2-azabicyclo[3.1.0]hexane-3-carboxylic acid]	> 10000
CC(=O)c1nn(CC(=O)N2[C@H](C(=O)Nc3nc(Br)ccc3C)C[C@@]3(CN4CC5(COC5)C4)C[C@@H]23)c2c(C)cc(-c3cnc(C)nc3)cc12 [Compound 127, (1R,3S,5R)-5-(2-Oxa-6-azaspiro[3.3]heptan-6-ylmethyl)-2-(2-(3-acetyl-7-methyl-5-(2-methylpyrimidin-5-yl)-1H-indazol-1-yl)acetyl)-N-(6-bromo-3-methylpyridin-2-yl)-2-azabicyclo[3.1.0]hexane-3-carboxamide]	< 1000
CC(=O)c1nn(CC(=O)N2[C@H](C(=O)Nc3nc(Br)ccc3C)C[C@@]3(CN4C[C@H]5CCC[C@H]5C4)C[C@@H]23)c2c(C)cc(-c3cnc(C)nc3)cc12 [Compound 128, (1R,3S,5R)-2-(2-(3-Acetyl-7-methyl-5-(2-methylpyrimidin-5-yl)-1H-indazol-1-yl)acetyl)-N-(6-bromo-3-methylpyridin-2-yl)-5-(((3aR,6aS)-hexahydrocyclopenta[c]pyrrol-2(1H)-yl)methyl)-2-azabicyclo[3.1.0]hexane-3-carboxamide]	< 1000
CC(=O)c1nn(CC(=O)N2[C@H](C(=O)Nc3nc(Br)ccc3C)C[C@@]3(CN4CC5(CCCC5)C4)C[C@@H]23)c2c(C)cc(-c3cnc(C)nc3)cc12 [Compound 129, (1R,3S,5R)-5-(2-Azaspiro[3.4]octan-2-ylmethyl)-2-(2-(3-acetyl-7-methyl-5-(2-methylpyrimidin-5-yl)-1H-indazol-1-yl)acetyl)-N-(6-bromo-3-methylpyridin-2-yl)-2-azabicyclo[3.1.0]hexane-3-carboxamide]	< 1000
CC(=O)c1nn(CC(=O)N2[C@H](C(=O)Nc3nc(Br)ccc3C)C[C@@]3(C)C[C@@H]23)c2ccc(-c3cnc(C)nc3)c(F)c12 [Compound 130, (1R,3S,5R)-2-(2-(3-Acetyl-4-fluoro-5-(2-methylpyrimidin-5-yl)-1H-indazol-1-yl)acetyl)-N-(6-bromo-3-methylpyridin-2-yl)-5-methyl-2-azabicyclo[3.1.0]hexane-3-carboxamide]	< 1000
CC(=O)c1nn(CC(=O)N2[C@H](C(=O)Nc3nc(Br)ccc3C)C[C@@]3(C)C[C@@H]23)c2c(C3CC3)cc(-c3cnc(C)nc3)cc12 [Compound 131, (1R,3S,5R)-2-(2-(3-Acetyl-7-cyclopropyl-5-(2-methylpyrimidin-5-yl)-1H-indazol-1-yl)acetyl)-N-(6-bromo-3-methylpyridin-2-yl)-5-methyl-2-azabicyclo[3.1.0]hexane-3-carboxamide]	< 1000
CCNC[C@@]12C[C@@H](C(=O)Nc3nc(Br)ccc3C)N(C(=O)Cn3nc(C(C)=O)c4cc(-c5cnc(C)nc5)cc(C)c43)[C@@H]1C2 [Compound 132, (1R,3S,5R)-2-(2-(3-Acetyl-7-methyl-5-(2-methylpyrimidin-5-yl)-1H-indazol-1-yl)acetyl)-N-(6-bromo-3-methylpyridin-2-yl)-5-((ethylamino)methyl)-2-azabicyclo[3.1.0]hexane-3-carboxamide]	< 1000
CC(=O)c1nn(CC(=O)N2[C@H](C(=O)Nc3nc(Br)ccc3C)C[C@@]3(C)C[C@@H]23)c2c(C(F)(F)F)cc(-c3cnc(C)nc3)cc12 [Compound 133, (1R,3S,5R)-2-(2-(3-Acetyl-5-(2-methylpyrimidin-5-yl)-7-(trifluoromethyl)-1H-indazol-1-yl)acetyl)-N-(6-bromo-3-methylpyridin-2-yl)-5-methyl-2-azabicyclo[3.1.0]hexane-3-carboxamide]	< 1000
